Data from PubChem BioAssay (NCI).
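Results reflect a 48-hour exposure of cells in 96-well plates to compound at five concentrations. Definition used: TGI = concentration required for complete inhibition of growth.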

Experiments:
Test in all cases: DTP human tumour cell line panel, 48 h
OVCAR-3 ovarian = tested on: OVCAR-3 ovarian
SK-MEL-5 melanoma = tested on: SK-MEL-5 melanoma
HOP-62 NSCLC = tested on: HOP-62 NSCLC
M14 melanoma = tested on: M14 melanoma
RXF 393 renal = tested on: RXF 393 renal
DU-145 prostate = tested on: DU-145 prostate
HS 578T breast = tested on: HS 578T breast
SW-620 colon = tested on: SW-620 colon
OVCAR-5 ovarian = tested on: OVCAR-5 ovarian
HCT-15 colon = tested on: HCT-15 colon
OVCAR-4 ovarian = tested on: OVCAR-4 ovarian
UACC-62 melanoma = tested on: UACC-62 melanoma
COLO 205 colon = tested on: COLO 205 colon

Compound	TGI (OVCAR-3 ovarian) [µM]	TGI (SK-MEL-5 melanoma) [µM]	TGI (HOP-62 NSCLC) [µM]	TGI (M14 melanoma) [µM]	TGI (RXF 393 renal) [µM]	TGI (DU-145 prostate) [µM]	TGI (HS 578T breast) [µM]	TGI (SW-620 colon) [µM]	TGI (OVCAR-5 ovarian) [µM]	TGI (HCT-15 colon) [µM]	TGI (OVCAR-4 ovarian) [µM]	TGI (UACC-62 melanoma) [µM]	TGI (COLO 205 colon) [µM]
COc1ccc2nc3c(c(N)c2c1)C1CCC3C1(C)C (configuration not stated)	> 100	25.7	47.9	33.6	81.5	> 100	> 100	> 100	> 100	> 100	> 100	58	36.2
Cc1ccc(S[C@@](C=O)(NC(=O)OCc2ccccc2)C(F)(F)F)cc1	> 100	41.4	88.3	78.6	31.2	47.4	> 100	66.9	54.8	54.4	> 100	40.4	35.5
NCCOc1cccc(C2(N3CCCCC3)CCCCC2)c1	> 100	30.1	> 100	30.2	> 100	> 100	38.5	> 100	> 100	> 100	> 100	44.2	26
CCN1CCC(O)(c2ccc([N+](=O)[O-])cc2)C(C(=O)c2ccc([N+](=O)[O-])cc2)C1 (configuration not stated)	31.5	35.7	> 100	42.1	30	32.3	61.7	> 100	> 100	52.9	83.9	33	28.1
N#Cc1c(NC(=O)C(F)(F)F)sc2c3c(=O)c4ccccc4c(=O)c=3oc3ccccc3c12	> 80.1	26.6	> 61.9	> 61.7	> 63.4	28.7	14.6	67.1	63.3	49.7	31.2	26	32.8
COc1ccc(-c2oc3cc(-c4cc5oc(-c6ccc(OC)cc6)c(-c6ccc(OC)cc6)c5cc4OC)c(OC)cc3c2-c2ccc(OC)cc2)cc1	> 100	> 100	> 100	> 100	> 100	> 100	> 100	> 100	> 100	> 100	> 100	> 100	> 100
COC(=O)/C=C/c1ccc(OP(=O)(O)O)c(OC)c1	> 100	> 100	> 100	> 100	> 100	> 100	> 100	> 100	> 100	> 100	> 100	> 100	> 100
Oc1c(N2CCCCC2)cc(-c2cc(N3CCCCC3)c(O)c3ccccc23)c2ccccc12	> 100	34.6	> 100	32	77.7	49	72.6	94.2	> 100	> 100	44.9	51.6	67.6
C[C@@H](CC(=O)OCc1ccccc1)OC1OC(COC(=O)C(C)(C)C)C(OC(=O)C(C)(C)C)C(OC(=O)C(C)(C)C)C1OC(=O)C(C)(C)C (some centres not stated)	> 100	> 100	> 100	> 100	> 100	> 100	> 100	> 100	> 100	> 100	> 100	> 100	> 100
N#Cc1sc2nc3ccccc3n2c1N	> 100	> 100	> 100	> 100	67.6	> 100	> 100	> 100	> 100	> 100	> 100	> 100	> 100
C=CCON(C(=O)OC(C)(C)C)C(C)(C)C	> 100	> 100	> 100	> 100	> 100	> 100	> 100	> 100	> 100	> 100	> 100	> 100	> 100
COc1ccc(/C(Nc2ccccc2)=C(\CCl)c2ccccc2)cc1OC	> 100	72.2	> 100	> 100	> 100	> 100	> 100	> 100	> 100	> 100	> 100	> 100	> 100
CC(=O)c1ccc(N=NN2CCCC2)cc1	> 100	> 100	> 100	> 100	> 100	> 100	> 100	> 100	> 100	> 100	> 100	> 100	> 100
COC(=O)C1CCC(=O)N1CN(C(C)=O)c1cccc(O)c1 (configuration not stated)	> 100	> 100	> 100	> 100	> 100	> 100	> 100	> 100	> 100	> 100	> 100	> 100	> 100
